# Source: paper PMC12074421, “Development and Characterization of pFluor50, a Fluorogenic-Based Kinetic Assay System for High-Throughput Inhibition Screening and Characterization of Time-Dependent Inhibition and Inhibition Type for Six Human CYPs” (Molecules, 2025)
# Several values for one entry are separate records, joined by “and”; a condition that tells them apart may be missing. Identical values can stand only once. Entries after “also recorded” stand apart in the source; their conditions may differ. Like-named read-outs stand apart in the source and are kept apart here.
# T1: CYP2B6 (Homo sapiens, UniProt P20813)
# T1 sequence (P20813 1-491): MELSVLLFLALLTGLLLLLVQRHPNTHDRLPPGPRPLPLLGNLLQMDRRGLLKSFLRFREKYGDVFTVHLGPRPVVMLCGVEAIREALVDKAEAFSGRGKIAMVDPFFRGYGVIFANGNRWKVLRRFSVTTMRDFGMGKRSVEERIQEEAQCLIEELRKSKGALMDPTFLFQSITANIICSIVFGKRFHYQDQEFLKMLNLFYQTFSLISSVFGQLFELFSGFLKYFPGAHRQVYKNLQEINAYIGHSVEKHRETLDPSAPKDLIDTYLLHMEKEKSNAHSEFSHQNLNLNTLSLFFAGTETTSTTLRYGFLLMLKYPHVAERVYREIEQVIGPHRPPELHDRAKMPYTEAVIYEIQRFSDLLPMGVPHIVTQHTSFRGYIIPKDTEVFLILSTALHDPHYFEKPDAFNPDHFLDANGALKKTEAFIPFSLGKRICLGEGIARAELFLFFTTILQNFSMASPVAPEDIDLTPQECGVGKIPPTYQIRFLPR
# Assays:
# CYP3A4 [1] = target: T2, CYP3A4 (Homo sapiens, UniProt P08684); parameters: purchased Sigma Aldrich (CYPexpress, Oxford Biomedical Research, Inc.) MTOXCE3A4; method as in PMID 11095581, PMID 22252407; details: read-out: Literature KM (converted); cited from earlier work
# CYP3A4 [2] = target: T2, CYP3A4; experiment: pFluor50 Michaelis–Menten kinetics, CYP3A4 with DBF; assay type: in vitro ADME; parameters: purchased Sigma Aldrich (CYPexpress, Oxford Biomedical Research, Inc.) MTOXCE3A4
# Protocol: (§1) In general, the protocol for determination of the Michaelis–Menten kinetic parameters (KM and Vmax) involved addition of the appropriate master mix to phosphate buffer followed by addition of the appropriate amount of enzyme to the mix. The master mix was determined for each specific CPY450 based on empirical methods involving each reagent to obtain a linear range of enzyme activity. A total of 30 µL of this enzyme mix was then added to each well of the 384-well plate. Next, initial background readings were taken for 5 min, after which the appropriate amount of substrate was dispensed into each well using the onboard reagent dispenser of the plate reader. All plates contained one blank well without enzyme (only master mix) for each substrate concentration. […] Table 1 provides the formulation of the master mix for each CYP, the kinetic read time with substrate, the read time interval, the concentration range of the substrate used for the Michaelis–Menten kinetics, the Ex and Em wavelengths, and the concentration of substrate for inhibition/activation screening. Table S1 details the specific parameters used for the plate reader for each CYP–substrate pair.
# (§2) For determining the Michaelis–Menten kinetic parameters (KM and Vmax) for each CYP–substrate pair, kinetic studies were performed in which a range of different concentrations of the substrate were used. Table 1 details the formulations for the master mix, CYPexpress^TM concentrations, and concentration ranges of each specific substrate. For each CYP–substrate pair, plate reader parameters were set up as described in Table S1. […] Briefly, the working solution was prepared for each substrate and then primed into one of the dispensers on the plate reader. […] The amount of CYPexpress reagent in units/(mg/mL) was determined for each enzyme as new lots may have slightly different activities, and the activity of the reagent may change over time. The appropriate mass of each CYPexpress^TM reagent needed to obtain the required units was measured using an analytical balance and was transferred to the master mix solution. […]
# CYP2B6 [3] = target: T1, CYP2B6; parameters: purchased Sigma Aldrich (CYPexpress, Oxford Biomedical Research, Inc.) MTOXCE2B6; method as in PMID 17433521, PMID 9732386; details: read-out: Literature KM (converted), cited from earlier work
# CYP2B6 [4] = target: T1, CYP2B6; experiment: pFluor50 Michaelis–Menten kinetics, CYP2B6 with Bzres; assay type: in vitro ADME; parameters: purchased Sigma Aldrich (CYPexpress, Oxford Biomedical Research, Inc.) MTOXCE2B6
# Protocol: as §1
# For determining the Michaelis–Menten kinetic parameters (KM and Vmax) for each CYP–substrate pair, kinetic studies were performed in which a range of different concentrations of the substrate were used. Table 1 details the formulations for the master mix, CYPexpress^TM concentrations, and concentration ranges of each specific substrate. For each CYP–substrate pair, plate reader parameters were set up as described in Table S1. The protocol used for Michaelis–Menten kinetics was similar for all the CYPs. Briefly, the working solution was prepared for each substrate and then primed into one of the dispensers on the plate reader. The other dispenser was primed with the buffer solution. 1.5 mL of phosphate buffer solution (pH 7.4) was used to prepare the master mix with the appropriate concentration of each reagent as specified in Table 1 (NADPH, NADP+, G6P, G6PDH, and/or MgCl2). The amount of CYPexpress reagent in units/(mg/mL) was determined for each enzyme as new lots may have slightly different activities, and the activity of the reagent may change over time. The appropriate mass of each CYPexpress^TM reagent needed to obtain the required units was measured using an analytical balance and was transferred to the master mix solution. This solution was mixed, and 30 µL of the solution was added to each well using a multichannel pipette. In each case, a blank control well was also included, as described in Figure S1. The plate was then transferred to the plate reader and readings were taken at the time intervals, for the appropriate length of time, and at the appropriate wavelengths as specified in Table 1.
# Calibration curves were constructed using the determined plate reader settings (Figure S3) and concentrations of the products formed to allow for the calculation of product formation rates based on the observed fluorescence. For these calculations, we presumed that the total increase in observed fluorescence over time was due only to product formation. Calibration curves were generated with 6 different concentrations of the products (fluorescein and resorufin), which spanned the relative fluorescence units (RFU) observed during the kinetic experiments. This allowed for the calculation of product concentrations from the observed RFU, enabling the calculation of the product formation rates. Unfortunately, fluorescein benzyl ester (the product formed from the metabolism of dibenzyl fluorescein) is not commercially available. Therefore, the exact rate of formation could not be determined, and the Vmax for CYP3A4 cleavage of dibenzyl fluorescein has been reported as the rate of change in relative fluorescence units (RFUs) per minute.
# CYP2C9 [5] = target: T3, CYP2C9 (Homo sapiens, UniProt P11712); experiment: pFluor50 Michaelis–Menten kinetics, CYP2C9 with Eres; assay type: in vitro ADME; parameters: purchased Sigma Aldrich (CYPexpress, Oxford Biomedical Research, Inc.) MTOXCE2C9
# Protocol: as §1, §2
# CYP2D6 = CYP2D6 (Homo sapiens, UniProt P10635); experiment: pFluor50 Michaelis–Menten kinetics, CYP2D6 with Eres; assay type: in vitro ADME; parameters: purchased Sigma Aldrich (CYPexpress, Oxford Biomedical Research, Inc.) MTOXCE2D6
# Protocol: as §1, with “reader.” for “reader. All plates contained one blank well without enzyme (only master mix) for each substrate concentration.”
# For determining the Michaelis–Menten kinetic parameters (KM and Vmax) for each CYP–substrate pair, kinetic studies were performed in which a range of different concentrations of the substrate were used. […] For each CYP–substrate pair, plate reader parameters were set up as described in Table S1. […]
# CYP3A4 [6] = target: T2, CYP3A4; parameters: purchased Sigma Aldrich (CYPexpress, Oxford Biomedical Research, Inc.) MTOXCE3A4; details: read-out: Literature IC50 (converted), cited from earlier work
# CYP3A4 [7] = target: T2, CYP3A4; experiment: pFluor50 fluorogenic CYP3A4 inhibition (IC50, time dependence)
# CYP2C19 = target: T4, CYP2C19 (Homo sapiens, UniProt P33261); experiment: pFluor50 Michaelis–Menten kinetics, CYP2C19 with 3OMF; assay type: in vitro ADME
# T4 construct: purchased Sigma Aldrich (CYPexpress, Oxford Biomedical Research, Inc.) MTOXCE2C19
# Protocol: as §1, §2
# CYP2C9 [8] = target: T3, CYP2C9; details: substrate Eres, model comparison by Akaike's Information Criterion
# [9] = substrate: CCOc1ccc2nc3ccc(=O)cc-3oc2c1; experiment: pFluor50 Michaelis–Menten kinetics, CYP2C9 with Eres; assay type: in vitro ADME, human; details: pH 7.4
# Protocol: as §1, §2
# T4 sequence (P33261 whole entry): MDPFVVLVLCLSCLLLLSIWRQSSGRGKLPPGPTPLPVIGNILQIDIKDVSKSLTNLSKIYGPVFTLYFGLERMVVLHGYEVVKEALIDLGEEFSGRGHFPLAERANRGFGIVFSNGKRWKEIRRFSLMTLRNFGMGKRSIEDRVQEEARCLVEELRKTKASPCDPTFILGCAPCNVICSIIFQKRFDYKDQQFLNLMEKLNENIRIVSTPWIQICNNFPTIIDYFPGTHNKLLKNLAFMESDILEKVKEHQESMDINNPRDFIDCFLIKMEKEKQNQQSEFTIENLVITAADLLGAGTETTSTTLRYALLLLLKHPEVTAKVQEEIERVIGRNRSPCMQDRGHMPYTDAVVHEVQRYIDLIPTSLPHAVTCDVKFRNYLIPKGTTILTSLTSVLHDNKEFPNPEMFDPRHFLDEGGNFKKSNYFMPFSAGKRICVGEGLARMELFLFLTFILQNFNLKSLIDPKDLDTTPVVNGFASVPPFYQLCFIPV
# T2 sequence (P08684 2-503 limits assumed): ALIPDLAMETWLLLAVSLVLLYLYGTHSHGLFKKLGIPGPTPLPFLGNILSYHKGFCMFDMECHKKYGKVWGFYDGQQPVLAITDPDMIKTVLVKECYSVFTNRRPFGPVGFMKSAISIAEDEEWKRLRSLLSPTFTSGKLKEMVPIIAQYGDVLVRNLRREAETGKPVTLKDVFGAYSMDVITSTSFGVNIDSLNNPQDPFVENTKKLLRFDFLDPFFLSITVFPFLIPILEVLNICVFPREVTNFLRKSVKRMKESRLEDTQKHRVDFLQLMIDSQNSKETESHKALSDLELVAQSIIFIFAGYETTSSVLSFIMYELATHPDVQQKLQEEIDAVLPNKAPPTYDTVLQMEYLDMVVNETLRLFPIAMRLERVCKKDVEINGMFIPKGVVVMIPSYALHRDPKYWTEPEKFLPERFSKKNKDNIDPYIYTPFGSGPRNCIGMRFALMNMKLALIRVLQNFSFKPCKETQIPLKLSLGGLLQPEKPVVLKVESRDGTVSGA
# Chain of CYP2D6 (P10635 whole entry): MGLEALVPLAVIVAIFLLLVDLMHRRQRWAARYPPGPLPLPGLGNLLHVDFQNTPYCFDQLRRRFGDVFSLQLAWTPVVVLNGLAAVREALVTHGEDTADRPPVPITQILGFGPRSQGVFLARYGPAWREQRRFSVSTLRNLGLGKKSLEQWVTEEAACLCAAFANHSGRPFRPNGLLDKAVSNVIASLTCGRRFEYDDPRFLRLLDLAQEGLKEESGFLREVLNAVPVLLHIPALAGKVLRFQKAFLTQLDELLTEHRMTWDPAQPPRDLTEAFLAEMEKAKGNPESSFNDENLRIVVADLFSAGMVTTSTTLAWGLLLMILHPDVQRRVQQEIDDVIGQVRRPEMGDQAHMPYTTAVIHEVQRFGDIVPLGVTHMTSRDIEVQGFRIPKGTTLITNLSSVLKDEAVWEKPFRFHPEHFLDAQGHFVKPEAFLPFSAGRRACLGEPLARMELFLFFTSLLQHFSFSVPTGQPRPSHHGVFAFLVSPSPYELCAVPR
molecule,measurement,setting,value
"O=C(OCc1ccccc1)c1ccccc1-c1c2ccc(=O)cc-2oc2cc(OCc3ccccc3)ccc12 [DBF, benzyl 2-(6-(benzyloxy)-3-oxo-3H-xanthen-9-yl)benzoate]",Km,CYP3A4 [1],0.87 µM and 1.37 µM
same,Vmax – repeat 1,"CYP3A4 [2]; CYP3A4, biological repeat 1",92.28 RFU/min
same,Vmax – repeat 2,"CYP3A4 [2]; CYP3A4, biological repeat 2",104.6 RFU/min
same,Vmax – repeat 3,"CYP3A4 [2]; CYP3A4, biological repeat 3",76.71 RFU/min
"O=c1ccc2nc3ccc(OCc4ccccc4)cc3oc-2c1 [Bzres, 7-(benzyloxy)-3H-phenoxazin-3-one]",Km,"CYP2B6 [3]; CYP2B6, human Bl cell",1.3 µM
same,Km,CYP2B6 [3]; CYP2B6,34 ± 10.4 µM
same,Average Vmax,"CYP2B6 [4]; CYP2B6 1 mg/mL, rate of product formation",0.33 ± 0.1 nmol/min
same,Km,"CYP2B6 [4]; CYP2B6 1 mg/mL, three biological replicates, read-out: Average KM",40.6 ± 19.6 µM
same,Average Vmax,"CYP2B6 [4]; CYP2B6, Table S3",0.3343 ± 0.1111 nmol/min
same,Vmax – repeat 1,"CYP2B6 [4]; CYP2B6, biological repeat 1",276.3 pmol/min
same,Vmax – repeat 2,"CYP2B6 [4]; CYP2B6, biological repeat 2",264.2 pmol/min
same,Vmax – repeat 3,"CYP2B6 [4]; CYP2B6, biological repeat 3",462.4 pmol/min
same,Km,"CYP2B6 [4]; human, CYPexpress CYP2B6 enzyme reagent, pH 7.4, CYP2B6 1 mg/mL, three biological replicates, read-out: Average KM",40.6 ± 19.6 µM
same,Km,"CYP2B6 [4]; human, CYPexpress CYP2B6 enzyme reagent, pH 7.4, CYP2B6, biological repeat 1, read-out: KM – repeat 1",33 µM
same,Km,"CYP2B6 [4]; human, CYPexpress CYP2B6 enzyme reagent, pH 7.4, CYP2B6, biological repeat 2, read-out: KM – repeat 2",25.9 µM
same,Km,"CYP2B6 [4]; human, CYPexpress CYP2B6 enzyme reagent, pH 7.4, CYP2B6, biological repeat 3, read-out: KM – repeat 3",62.9 µM
"CCOc1ccc2nc3ccc(=O)cc-3oc2c1 [Eres, 7-ethoxy-3H-phenoxazin-3-one]",Vmax – repeat 1,"CYP2C9 [5]; CYP2C9, biological repeat 1",0.40 nmol/min
same,Vmax – repeat 2,"CYP2C9 [5]; CYP2C9, biological repeat 2",0.39 nmol/min
same,Vmax – repeat 3,"CYP2C9 [5]; CYP2C9, biological repeat 3",0.49 nmol/min
same,Vmax – repeat 1,"CYP2D6; CYP2D6, biological repeat 1",1.22 nmol/min
same,Vmax – repeat 2,"CYP2D6; CYP2D6, biological repeat 2",0.72 nmol/min
Cc1ccc(-c2c(-c3nn(C)c4ncnc(N5CC[C@H](N6CCCCC6)C5)c34)cnn2C)cc1 [CYP3cide],IC50,"CYP3A4 [6]; CYP3A4, Midazolam/LC-MS/MS",300 ± 20 nM
same,IC50,"CYP3A4 [6]; CYP3A4, Testosterone/LC-MS/MS",690 nM
same,Time dependence of CYP3A4 inhibition,"CYP3A4 [7]; 0.05 µM inhibitor, pre-incubation between 5 and 30 min",time-dependent manner; also recorded: increase with time
same,IC50,"CYP3A4 [7]; read-out: Average IC50, CYP3A4, DBF 4 µM, 5 min pre-incubation, DMSO 0.5%",126 ± 66.2 nM
same,IC50,"CYP3A4 [7]; read-out: IC50 (nM)– repeat 1, CYP3A4, biological repeat 1",108 nM
same,IC50,"CYP3A4 [7]; read-out: IC50 (nM)– repeat 2, CYP3A4, biological repeat 2",200 nM
same,IC50,"CYP3A4 [7]; read-out: IC50 (nM)– repeat 3, CYP3A4, biological repeat 3",70.8 nM
"COc1ccc2c(-c3ccccc3C(=O)O)c3ccc(=O)cc-3oc2c1 [3OMF, 2-(6-methoxy-3-oxo-3H-xanthen-9-yl)benzoic acid]",Vmax – repeat 1,"CYP2C19; CYP2C19, biological repeat 1",19.35 nmol/min
same,Vmax – repeat 2,"CYP2C19; CYP2C19, biological repeat 2",15.86 nmol/min
same,Vmax – repeat 3,"CYP2C19; CYP2C19, biological repeat 3",19.37 nmol/min
"Nc1ccc(S(=O)(=O)Nc2ccnn2-c2ccccc2)cc1 [Sulfaphenazole, sulfaphenazole]",Type of inhibition of CYP2C9,CYP2C9 [8],competitive inhibition
"CYP2C9 (Homo sapiens) (protein, purchased Sigma Aldrich (CYPexpress, Oxford Biomedical Research, Inc.) MTOXCE2C9) MDSLVVLVLCLSCLLLLSLWRQSSGRGKLPPGPTPLPVIGNILQIGIKDISKSLTNLSKVYGPVFTLYFGLKPIVVLHGYEAVKEALIDLGEEFSGRGIFPLAERANRGFGIVFSNGKKWKEIRRFSLMTLRNFGMGKRSIEDRVQEEARCLVEELRKTKASPCDPTFILGCAPCNVICSIIFHKRFDYKDQQFLNLMEKLNENIKILSSPWIQICNNFSPIIDYFPGTHNKLLKNVAFMKSYILEKVKEHQESMDMNNPQDFIDCFLMKMEKEKHNQPSEFTIESLENTAVDLFGAGTETTSTTLRYALLLLLKHPEVTAKVQEEIERVIGRNRSPCMQDRSHMPYTDAVVHEVQRYIDLLPTSLPHAVTCDIKFRNYLIPKGTTILISLTSVLHDNKEFPNPEMFDPHHFLDEGGNFKKSKYFMPFSAGKRICVGEALAGMELFLFLTSILQNFNLKSLVDPKNLDTTPVVNGFASVPPFYQLCFIPV",Km,"[9]; other: CYP2C9, biological repeat 1",0.46 µM
same,Km,"[9]; other: CYP2C9, biological repeat 2",0.52 µM
same,Km,"[9]; other: CYP2C9, biological repeat 3",0.39 µM
